Data published in US5464819A, “Physiologically active peptide having immunoregulatory activities” (priority 1990, dated 1995).
Ends that are not written are not given here.

Experiments:
Toxoplasma strain RH [1] = experiment: Activity to inhibit multiplication of Toxoplasma (percentage of cells containing Toxoplasma, Toxo-GIF activity, cytotoxicity) in mouse peritoneal macrophages; format: cell-based, Toxoplasma gondii
Experimental: (§1) In the present invention, the activity to inhibit multiplication of Toxoplasma is evaluated by two characteristics, i.e. "percentage of cells containing Toxoplasma" and "Toxoplasma growth inhibitory factor activity (hereinafter referred to as "Toxo-GIF activity")". These characteristics are measured according to the methods described in Nagasawa, H., et.al., Jpn. J. Vet. Sci., vol. 43, pages 307-319, 1981 and Sakurai, H., et.al., Jpn. J. Trop. Med. Hyg., vol. 10, pages 183-195, 1982.
An adult BALB/c female mouse is intraperitoneally injected with 1 ml of a sterilized saline containing 0.2% of glycogen, and, 5 days later, the peritoneal cavity of the mouse is washed with cold Hank's balanced salt solution (hereinafter referred to as "HBSS"), thereby taking up peritoneal exudate cells. These cells are washed by centrifugation at 250×G for 5 min twice, and suspended in Tc199 culture medium containing 10% of heat-inactivated calf serum (hereinafter referred to as "10%-HICS-Tc199 culture medium", see Igaku No Ayumi (Progress in Medicine), 62, No. 6, published on Aug. 5, 1967) in a concentration of 1×10^6 cells/mi. This cell suspension is portionwise poured, 1 ml each, into culture wells (Multidish-tray, FB-16-24-TC, manufactured and sold by Limblo Chemical Co., U.S.A.), which are covered by a circular cover glass having a diameter of 15 mm, and cultured in a 5% CO2 -incubator. In order to remove contaminating erythrocytes and lymphocytes, each of the culture wells is gently rinsed with HBSS three times at intervals of 2 hours, and then cultivated overnight in the CO2 -incubator to thereby form a mouse macrophage monolayer on the cover glass.
Each of the above-obtained monolayers is again rinsed with 10%-HICS-Tc199 culture medium, and inoculated with 1×10^5 tachyzoites of Toxoplasma strain RH per 1×10^6 mouse macrophages or canine monocytes so that the macrophages are infected thereby. Free Toxoplasma organisms having not penetrated into the cells are removed by washing with HBSS one hour after the inoculation.
(§2) A 10%-HICS-Tc199 culture medium containing a peptide sample is applied to the cover glass in an amount of 1 ml per 1×10^6 cells for both of the mouse macrophages and the canine monocytes, followed by cultivation for 48 hours, and then stained with May-Grunwald-Giemsa to thereby count the number of Toxoplasma organisms in the cells. Within a certain visual field on the cover glass, 100 cells are checked to count the number of cells which contain no Toxoplasma, the number of cells which contain one to five Toxoplasm organisms and the number of cells which contain 6 or more Toxoplasma organisms, and the count results are expressed by percentage. Similar checking and counting are performed within four other visual fields on the cover glass. From the data obtained on all of the five visual fields, an average value and a standard deviation are calculated to determine the percentage of cells containing Toxoplasma.
As a peptide sample, use is made of one obtained by dissolving a powdery peptide in 3 ml of 10%-HICS-Tc199 culture medium and then filtering and sterilizing the resultant solution through a membrane filter having a pore size of 0.46 μm. […]
The thus obtained crude Obioactin is fractionated by DEAE-5PW column (manufactured and sold by Tosoh Co., Japan) having an inside diameter of 21.5 mm and a length of 15 cm by NaCl concentration gradient ion exchange chromatography in which a concentration gradient of NaCl from 0M to 1M is made in 0.02M ammonium acetate as a basic solution. Each of the fractions is lyophilized, desalted by gel filtration through Sephadex G-15 (trade name of a gel manufactured and sold by Pharmacia Fine Chemicals Co., Sweden) and lyophilized again.

Toxoplasma = experiment: Toxo-GIF activity of synthetic peptides used singly and in combination (host cells not stated); format: cell-based, Toxoplasma gondii; conditions: total mg/ml: Obio-1 0.49, Obio-2 0.50, Obio-3 0.45, Obio-1+Obio-2 0.49, Obio-1+Obio-3 0.46, Obio-2+Obio-3 0.47
Experimental: as §1, §2
(§3) The Toxo-GIF activity, which is another activity useful for evaluating the activity to inhibit multiplication of Toxoplasma, is defined as a proportion of decrease of Toxoplasma (Tp)-containing cells (in percentage) attributed to the addition of a peptide sample, expressed by percentage, and calculated according to the following formula: Toxo-GIF Activity (%)= [formula]

[2] = test system: Methylcholanthrene induced tumor (MC tumor); experiment: Effect of peptide injection on tumor multiplication in Methylcholanthrene induced tumor (MC tumor)-bearing mouse; format: in vivo; conditions: 28 days after inoculation with MC tumor cells; 30 μg/mouse intramuscularly every week; control 432±10.5
Experimental: (§4) Methylcholanthrene induced tumor cells excised from an MC induced tumor lump of a BALB/c mouse having, injected thereto, 0.5 mg of 20-Methylcholanthrene (manufactured and sold by Wako Pure Chemical Industries Ltd.), are suspended in RPMI-1640 culture medium, thereby obtaining a cell suspension of 2×10^7 cells/ml. 0.025 ml (5×10^5 MC tumor cells/mouse) of the cell suspension is intramuscularly injected under the skin on the back of a 6-week-old male mouse to inoculate the mouse with MC-tumor cells, thereby obtaining a tumor-bearing mouse.
(§5) Each of Obio-2 and Obio-3 is intramuscularly injected in an amount of 30 μg/mouse under the skin on the back of the mouse every week after the injection of the above MC tumor cell suspension to evaluate the inhibitory effect thereof on the multiplication of the tumor. Five tumor-bearing mice are employed for each test, and an average is taken.

[3] = test system: mononuclear cells in spleen; experiment: Number of mononuclear cells in spleen and histopathology of MC tumor-bearing mouse; format: in vivo; conditions: for Bleeding colonies at the tumor tissue portions (histopathological findings): MC tumor-bearing mice, large bleeding colonies in uninjected mice; for Spleen mononuclear cell count in tumor-bearing mice relative to normal mice: spleen mononuclear cells, saline 0.10; for Spleen mononuclear cell count in tumor-bearing mice relative to normal mice / Number of mononuclear cells per mouse: MC tumor-bearing mouse; for Number of mononuclear cells per mouse: spleen, 30 μg once a week, normal mouse 13.0 × 10^7, saline 1.3 × 10^7
Experimental: as §4, §5
On the other hand, the number of mononuclear cells in the spleen of tumor-bearing mice injected with Obio-2 and Obio-3 experience only a slight decrease, and retains as large a number as 65 to 70% of that of normal mice. In the histopathological findings of these spleens, no significant change is observed in the spleen follicles of both the tumor-bearing mouse groups injected with Obio-2 and Obio-3 and the tumor-bearing mouse group injected with none of them. However, in the mouse groups injected with Obio-2 and Obio-3, small mononuclear cells (small lymphocytes) and large monocytes in the spleen red marrow conspicuously gather in the mallow, especially around the vessels, whereas the control mouse group not injected with the peptide has only small lymphocytes in the marrow.

Toxoplasma strain RH [4] = experiment: Activity to inhibit multiplication of Toxoplasma in canine monocytes; format: cell-based, Toxoplasma gondii; conditions: Obio-2 0.05 mg/ml, canine monocyte cell
Experimental: as §1
On the other hand, in the preparation of canine monocytes, 5 ml of blood is collected from cervical vein as a peripheral blood, and 0.05% of heparin is added. This blood is subjected to fractionation according to the Conray 400-Ficoll method (see Tsuji, H., Men-eki Jikken Sosaho (Procedure for Immunological Tests), 4th ed., Immunocells I-4, pages 443-446, published by Maeda Printing Co., Ltd., in 1979) to thereby obtain a mononuclear cell fraction. The obtained mononuclear cell fraction is subjected to centrifugation (800×G, 5 min., 4° C.) with HBSS and then with 10%-HICS-Tc199 culture medium, and suspended in 10%-HICS-Tc199 culture medium in a concentration of about 1×10^6 cells/mi. The resultant cell suspension is portionwise poured, 1 ml each, into the above-mentioned culture wells, which are covered by a circular cover glass having a diameter of 15 mm, and cultured in a 5% CO2 -incubator. The culturing is effected for 12 hours, and each of the culture wells is gently rinsed with HBSS three times, followed by cultivation overnight in the CO2 -incubator, to thereby form a canine monocyte monolayer on the cover glass.
Each of the above-obtained monolayers is again rinsed with 10%-HICS-Tc199 culture medium, and inoculated with 1×10^5 tachyzoites of Toxoplasma strain RH per 1×10^6 mouse macrophages or canine monocytes so that the macrophages are infected thereby. […]
A 10%-HICS-Tc199 culture medium containing a peptide sample is applied to the cover glass in an amount of 1 ml per 1×10^6 cells for both of the mouse macrophages and the canine monocytes, followed by cultivation for 48 hours, and then stained with May-Grunwald-Giemsa to thereby count the number of Toxoplasma organisms in the cells. […] From the data obtained on all of the five visual fields, an average value and a standard deviation are calculated to determine the percentage of cells containing Toxoplasma.
as §3, with “[formula] […]” for “[formula]”
(§6) The effect of the No. 5 peptide (Obio-2) is evaluated.

Toxoplasma strain RH [5] = experiment: Activity to inhibit multiplication of Toxoplasma in human myocardial cells (Giardi Heart cell); format: cell-based, Toxoplasma gondii; conditions: Obio-2 0.05 mg/ml
Experimental: as §1
(§7) The cells are suspended in MEM-M culture medium containing 10% of heat-inactivated calf serum at a concentration of 1×10^6 cells/mi. This cell suspension is portionwise poured, 1 ml each, into culture wells (multidish-tray, FB-16-24-TC, manufactured and sold by Limblo Chemical Co., U.S.A.), which are covered by a circular cover glass having a diameter of 15 mm, and cultured in a 5% CO2 -incubator overnight to thereby obtain a cell monolayer (a human myocardial cell monolayer and a human cerebral cell monolayer) on the cover glass.
(§8) The obtained cell monolayer is rinsed with MEM-M culture medium, and inoculated with 1×10^5 tachyzoites of Toxoplasma strain RH per 1×10^6 cells with respect to each of the human myocardial cells and the human brain cells. Free Toxoplasma organisms having not penetrated into the cells are removed by washing with HBSS one hour after the inoculation.
(§9) An MEM-M culture medium containing a peptide sample is applied to the cover glass in an amount of 1 ml per 1×10^6 cells, followed by cultivation for 48 hours, and then stained with May-Grunwald-Giemsa to thereby count the number of Toxoplasma organisms in the cells. The percentage of cells containing Toxoplasma organisms is determined in the same manner as described above for mouse macrophages.
as §3, §6

Toxoplasma strain RH [6] = experiment: Activity to inhibit multiplication of Toxoplasma in human cerebral cells (Flow 3000 cell); format: cell-based, Toxoplasma gondii; conditions: Obio-2 0.05 mg/ml
Experimental: as §1, §7, §8, §9, §3, §6

[7] = synthetic peptide 0.7 mM, mouse peritoneal macrophages
[8] = Obio-2 0.05 mg/ml, mouse macrophage

Row | Substance | Percentage of cells containing Toxoplasma (Tp): 0 Tp (Toxoplasma strain RH [1]; [7]) | Percentage of cells containing Toxoplasma (Tp): 1-5 Tp (Toxoplasma strain RH [1]; [7]) | Percentage of cells containing Toxoplasma (Tp): ≥6 Tp/cell (Toxoplasma strain RH [1]; [7]) | Toxo-GIF (Toxoplasma strain RH [1]; [7]) | Percentage of cells containing Toxoplasma (Tp): 0 Tp (Toxoplasma) | Percentage of cells containing Toxoplasma (Tp): 1-5 Tp (Toxoplasma) | Percentage of cells containing Toxoplasma (Tp): ≥6 Tp/cell (Toxoplasma) | Toxo-GIF (Toxoplasma) | Average tumor area [2] | Bleeding colonies at the tumor tissue portions (histopathological findings) [3] | Spleen mononuclear cell count in tumor-bearing mice relative to normal mice [3] | Number of mononuclear cells per mouse [3] | also measured
1 | GAEEPVV [peptide No. 6] | 55.2 ± 6.2% | 36.2 ± 8.6% | 8.6 ± 4.4% | 51.7% | 59.7 ± 15.8% | 29.5 ± 11.0% | 10.8 ± 7.1% | 51.1% | 219±40.1 mm^2 | no apparent bleeding colonies | 0.72 | 9.1 × 10^7 | 
2 | AEEPVV [peptide No. 5] | 64.4 ± 9.3% | 32.8 ± 8.8% | 2.8 ± 1.1% | 61.6% | 69.6 ± 11.5% | 24.0 ± 9.1% | 6.4 ± 2.7% | 63.1% | 208±40.1 mm^2 | no apparent bleeding colonies | 0.64 | 8.3 × 10^7 | Concentration at which Toxo-GIF activity becomes appreciable / sufficient activity is detected (Toxoplasma strain RH [1]): 0.25 mg/mL; Percentage of cells containing Toxoplasma (Tp): 0 Tp (Toxoplasma strain RH [1]; [8]): 88.4 ± 7.6%; Percentage of cells containing Toxoplasma (Tp): 1-5 Tp (Toxoplasma strain RH [1]; [8]): 7.0 ± 4.5%; Percentage of cells containing Toxoplasma (Tp): ≥6 Tp/cell (Toxoplasma strain RH [1]; [8]): 4.6 ± 4.2%; Toxo-GIF (Toxoplasma strain RH [1]; [8]): 50.4%; Percentage of cells containing Toxoplasma (Tp): 0 Tp (Toxoplasma strain RH [4]): 80.5 ± 6.4%; Percentage of cells containing Toxoplasma (Tp): 1-5 Tp (Toxoplasma strain RH [4]): 12.8 ± 5.4%; Percentage of cells containing Toxoplasma (Tp): ≥6 Tp/cell (Toxoplasma strain RH [4]): 6.7 ± 3.3%; Toxo-GIF (Toxoplasma strain RH [4]): 67.4%; Percentage of cells containing Toxoplasma (Tp): 0 Tp (Toxoplasma strain RH [5]): 80.7 ± 6.1%; Percentage of cells containing Toxoplasma (Tp): 1-5 Tp (Toxoplasma strain RH [5]): 10.6 ± 3.4%; Percentage of cells containing Toxoplasma (Tp): ≥6 Tp/cell (Toxoplasma strain RH [5]): 8.7 ± 2.1%; Toxo-GIF (Toxoplasma strain RH [5]): 57.7%; Percentage of cells containing Toxoplasma (Tp): 0 Tp (Toxoplasma strain RH [6]): 75.4 ± 7.4%; Percentage of cells containing Toxoplasma (Tp): 1-5 Tp (Toxoplasma strain RH [6]): 12.6 ± 6.8%; Percentage of cells containing Toxoplasma (Tp): ≥6 Tp/cell (Toxoplasma strain RH [6]): 2.1 ± 1.9%; Toxo-GIF (Toxoplasma strain RH [6]): 78.2%
